Laboratory results published in patent US20100280046A1, “Methods and Compositions for Treating Prostate Cancer, Benign Prostatic Hypertrophy, Polycystic Ovary Syndrome and Other Conditions” (DIOBEX, INC., priority 2006, published 2010).
“Also recorded” adds a separate entry of the source.

Legend:
[1] = Plasma levels of the two ketoconazole enantiomers in patients after fourteen daily doses (FIG. 4, FIG. 5); format: in vivo, humans; settings: for hepatic extraction (from the plasma into the liver): inferred from plasma profiles in patients; for plasma level (pharmacokinetic profile) of the enantiomer after racemic ketoconazole: 400 mg racemic ketoconazole (200 mg 2S,4R and 200 mg 2R,4S) once per day
Method: Each patient was given the appropriate drug once per day in the evening. After fourteen daily doses the level of each of the two enantiomers present in the plasma of the patients was determined at the indicated time points following the last dose of drug.
Assays were established and validated using isolated and purified enantiomers. […] Solid phase extraction (SPE) and HPLC/MS/MS were used to determine the concentration of the enantiomers 2R,4S and 2S,4R, of Ketoconzaole from human plasma. 2R,4S and 2S,4R Ketoconzaole were extracted from the plasma sample using SPE, 96 well plates packed with a reversed phase C8 extraction beds from Varian (Lake Forest, Calif.). An aliquot of the extract was injected onto a HPLC/MS/MS triple quadrupole mass spectrometer (Sciex API3000). A Chiralpak AD-H, 5 μm HPLC column (2.1×150 mm) from Chiral Technologies (West Chester, Pa.) preceded by an AD-H guard column (0.4×1.0 cm) were used to separate 2R,4S and 2S,4R Ketoconzaole and the internal standard terconazole. The peak area of multiple product ions (531.4→82.2, […], and 531.4→489.5) of the enantiomers of Ketoconzaole were summed and measured against the peak area of the product ion of the internal standard (terconazole, 534.5-÷ 219.3). Quantitation was performed using 1/x^2 weighted linear least squares regression line generated from similarly extracted plasma calibration samples ranging from 5 to 1000 ng/mL. All plasma was preserved with K3EDTA.

[2] = tested on: 17,20 lyase; settings: cited from earlier work
[3] = tested on: plasma testosterone; experiment: Time course of depression of plasma testosterone in rats after 200 mg/kg (FIG. 2); format: in vivo; settings: Sprague-Dawley rats, 200 mg/kg oral gavage, indicated times after dosing
Method: The rats were maintained and dosed as described above. Plasma was prepared at the indicated times after dosing and the concentration of testosterone in the plasma determined by ELISA.

[4] = tested on: plasma testosterone; experiment: Plasma testosterone in rats four hours after oral gavage of increasing dosage (FIG. 1); format: in vivo; settings: Sprague-Dawley rats, in olive oil
Method: The concentration of testosterone in the plasma of Sprague-Dawley rats was determined four hours after delivery by oral gavage of increasing dosage of the racemate or of the indicated enantiomer.
The effect of ketoconazole and the ketoconazole enantiomers on testosterone levels in the plasma of Sprague Dawley rats was determined. […] To generate the results shown in FIG. 1, fifteen groups (ten per group) of rats were used. The rats were maintained on a 14/10 hour light/dark cycle and allowed free access to food and water. Each rat was dosed with the indicated drug (or vehicle) at the indicated dosage via a gastric tube. All of the rats were dosed between 2.00 and 3.00 pm and were sacrificed four hours later (between 6.00 and 7.00 pm). Plasma was prepared and the concentration of testosterone determined by an enzyme linked immuno assay (ELISA).

[5] = oral racemic ketoconazole, healthy subjects; cited from earlier work
[6] = accelerated in the presence of water and elevated temperatures; cited from earlier work
[7] = isolated guinea pig hearts; cited from earlier work
[8] = target: T1, 17α hydroxylase (Homo sapiens, UniProt P05093); settings: cited from earlier work
T1 sequence (P05093 1-508): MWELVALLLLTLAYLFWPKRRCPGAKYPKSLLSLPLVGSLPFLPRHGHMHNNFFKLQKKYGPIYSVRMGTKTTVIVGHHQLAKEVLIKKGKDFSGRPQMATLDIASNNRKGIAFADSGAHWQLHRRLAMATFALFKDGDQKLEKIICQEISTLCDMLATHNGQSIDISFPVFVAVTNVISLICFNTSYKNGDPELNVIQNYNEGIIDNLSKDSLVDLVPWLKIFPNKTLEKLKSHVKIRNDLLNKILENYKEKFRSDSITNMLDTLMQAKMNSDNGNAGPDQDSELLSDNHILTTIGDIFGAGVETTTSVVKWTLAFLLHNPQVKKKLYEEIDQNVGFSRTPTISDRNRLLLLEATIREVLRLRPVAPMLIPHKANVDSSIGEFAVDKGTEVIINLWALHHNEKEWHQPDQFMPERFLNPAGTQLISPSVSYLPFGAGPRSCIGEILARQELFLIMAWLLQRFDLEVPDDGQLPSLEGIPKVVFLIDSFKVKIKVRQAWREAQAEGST

[9] = ketoconazole treated patients; cited from earlier work
[10] = patients, after fourteen daily doses

Row | hepatic extraction (from the plasma into the liver) [1] | SMILES | plasma level (pharmacokinetic profile) of the 2S,4R enantiomer given alone ([1]; patients, 200 mg 2S,4R enantiomer once per day, after fourteen daily doses) | plasma level (pharmacokinetic profile) of the enantiomer after racemic ketoconazole [1, 10] | potency toward 17,20 lyase [2] | time course of depression of plasma testosterone ([3]; 200 mg/kg) | time course of depression of plasma testosterone ([3]; listed as 2S,4R, 200 mg/kg) | lowering of plasma testosterone [4] | plasma level of the enantiomer after racemic ketoconazole [5] | degradation (oxidation) [6] | risk of cardiac arrhythmia [7] | inhibition of 17α hydroxylase [8] | time course of depression of plasma testosterone [3] | level of liver specific enzymes in the serum [9]
1 | relatively low hepatic extraction | CC(=O)N1CCN(c2ccc(OC[C@@H]3CO[C@@](Cn4ccnc4)(c4ccc(Cl)cc4Cl)O3)cc2)CC1 [2S,4R enantiomer] | very similar when given alone; also recorded: approximately the same as the plasma level of the 2S,4R enantiomer when patients are given both 200 mg 2S,4R and 200 mg 2R,4S | significantly greater than the pharmacokinetic profile of the 2R,4S enantiomer | more potent toward 17,20 lyase than is the other enantiomer 2R,4S | more effective at lowering testosterone than either racemic ketoconazole or the other cis enantiomer present in racemic ketoconazole (2R,4S) | significantly more efficacious than 2R,4S with respect to reducing testosterone levels | more effective at lowering testosterone than any either racemic ketoconazole or the 2R,4S enantiomer of ketoconazole; also recorded: significantly more efficacious than both the ketoconazole racemate and the other cis enantiomer (2R,4S) | approximately three times greater than that of the 2R,4S enantiomer |  |  |  |  | 
2 |  | CC(=O)N1CCN(c2ccc(OCC3COC(Cn4ccnc4)(c4ccc(Cl)cc4Cl)O3)cc2)CC1 (racemic) [racemic ketoconazole, 1-acetyl-4-[4-[[2-(2,4-dichlorophenyl)-2-[(1H-imidazol-1-yl)-methyl]-1,3-dioxolan-4-yl]methoxy]phenyl]piperazine] |  |  | inhibit |  |  | dose dependent effect |  | can undergo degradation (oxidation) | may be associated with an increased risk of cardiac arrhythmia | inhibit | testosterone levels recover following dosing | increase in these enzymes has been noted
3 | more efficient extraction | CC(=O)N1CCN(c2ccc(OC[C@H]3CO[C@](Cn4ccnc4)(c4ccc(Cl)cc4Cl)O3)cc2)CC1 (single isomer, unassigned) [2R,4S enantiomer, reference compound] |  | approximately one third of the plasma concentration of the 2S,4R enantiomer |  |  |  |  |  |  |  |  |  | 
